pEC50: −log10 of the molar value.

For this experiment, the target named is T1, human FPRL1 (Homo sapiens, UniProt P25090).
T1 construct: expressed in transfected cells; host or cells: HEK293 (JCRB9068, NIBIO), transient transfection with pCMV-script vectors using Lipofectamine 2000
T1 sequence (P25090 1-351): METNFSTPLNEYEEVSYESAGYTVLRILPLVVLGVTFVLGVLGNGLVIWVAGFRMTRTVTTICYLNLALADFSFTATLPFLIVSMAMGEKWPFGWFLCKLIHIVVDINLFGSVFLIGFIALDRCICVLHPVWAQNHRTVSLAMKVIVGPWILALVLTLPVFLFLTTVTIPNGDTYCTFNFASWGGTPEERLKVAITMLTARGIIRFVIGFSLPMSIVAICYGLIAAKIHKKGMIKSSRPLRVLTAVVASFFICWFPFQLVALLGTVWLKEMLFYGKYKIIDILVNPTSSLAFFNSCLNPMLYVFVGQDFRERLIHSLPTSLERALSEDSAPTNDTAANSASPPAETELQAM
Description: Measurement test of agonist activity on human FPRL1 (test of calcium mobilization in cell, HEK293 with human FPRL1 and Gα15 expression vectors). The conditions noted are these: calcium mobilization in HEK293 cells with human FPRL1 and Gα15 expression vectors. Type of experiment: cell-based. A digest of the protocol: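 HEK293 transiently co-transfected with human FPRL1 and Gα15, plated 24 h before assay, loaded with Fluo-4 NW dye plus probenecid. Compounds in eight 10-fold dilutions (DMSO stocks 10^−2 to 10^−9 M, then diluted 100-fold in assay buffer); calcium mobilization read on Flexstation for EC50.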
In general terms: A change in cytosolic calcium serves as a functional read-out for many receptors and channels.
With `COc1cc(F)c([C@@H]2CN(Cc3ncc(C)o3)C(=O)[C@H]2NC(=O)Nc2ccc(F)cc2)c(F)c1` (single isomer, unassigned) [EXAMPLE 24-17, (−)-1-{(3S*,4R*)-4-(2,6-difluoro-4-methoxyphenyl)-1-[(5-methyloxazol-2-yl)methyl]-2-oxopyrrolidin-3-yl}-3-(4-fluorophenyl)urea], the negative logarithm of the EC50 (pEC50) (as a rule, the EC50 on a negative log10 scale, so that one unit is a factor of ten) was 10.70.

For the compound `COc1cc(F)c([C@@H]2CN(Cc3nnc(C)o3)C(=O)[C@H]2NC(=O)Nc2ccc(F)cc2)c(F)c1` (single isomer, unassigned) [EXAMPLE 24-18, (−)-1-{(3S*,4R*)-4-(2,6-difluoro-4-methoxyphenyl)-1-[(5-methyl-1,3,4-oxadiazol-2-yl)methyl]-2-oxopyrrolidin-3-yl}-3-(4-fluorophenyl)urea], the pEC50 was 10.52.

On to `O=C(Nc1ccc(F)cc1)N[C@@H]1C(=O)N(CCO)C[C@H]1c1cc2c(cc1F)OCC2` (single isomer, unassigned) [EXAMPLE 24-19, (−)-1-[(3S*,4R*)-4-(6-fluoro-2,3-dihydrobenzofuran-5-yl)-1-(2-hydroxyethyl)-2-oxopyrrolidin-3-yl]-3-(4-fluorophenyl)urea], for which the pEC50 is 9.48.

For `CCOC(=O)CN1C[C@@H](c2cc3c(cc2F)OCC3)[C@H](NC(=O)Nc2ccc(F)cc2)C1=O` (single isomer, unassigned) [EXAMPLE 24-20, (−)-2-{(3S*,4R*)-4-(6-fluoro-2,3-dihydrobenzofuran-5-yl)-3-[3-(4-fluorophenyl)ureido]-2-oxopyrrolidin-1-yl}acetic acid ethyl ester], the pEC50 was 9.82.

For `CCOC(=O)C(C)(C)N1C[C@@H](c2cc3c(cc2F)OCC3)[C@H](NC(=O)Nc2ccc(F)cc2)C1=O` (single isomer, unassigned) [EXAMPLE 24-21, (−)-2-{(3S*,4R*)-4-(6-fluoro-2,3-dihydrobenzofuran-5-yl)-3-[3-(4-fluorophenyl)ureido]-2-oxopyrrolidin-1-yl}-2-methylpropanoic acid ethyl ester], the pEC50 is 9.35.

`O=C(Nc1ccc(F)cc1)N[C@@H]1C(=O)N(CC2CC2)C[C@H]1c1cc2c(cc1F)OCC2` (single isomer, unassigned) [EXAMPLE 24-22, (−)-1-[(3S*,4R*)-1-(cyclopropylmethyl)-4-(6-fluoro-2,3-dihydrobenzofuran-5-yl)-2-oxopyrrolidin-3-yl]-3-(4-fluorophenyl)urea]: the pEC50 was 8.88.

Regarding `N#CCN1C[C@@H](c2cc3c(cc2F)OCC3)[C@H](NC(=O)Nc2ccc(F)cc2)C1=O` (single isomer, unassigned) [EXAMPLE 24-23, (−)-1-[(3S*,4R*)-1-(cyanomethyl)-4-(6-fluoro-2,3-dihydrobenzofuran-5-yl)-2-oxopyrrolidin-3-yl]-3-(4-fluorophenyl)urea], the pEC50 was 9.10.

As to `Cc1nnc(CN2C[C@@H](c3cc4c(cc3F)OCC4)[C@H](NC(=O)Nc3ccc(F)cc3)C2=O)o1` (single isomer, unassigned) [EXAMPLE 24-24, (−)-1-{(3S*,4R*)-4-(6-fluoro-2,3-dihydrobenzofuran-5-yl)-1-[(5-methyl-1,3,4-oxadiazol-2-yl)methyl]-2-oxopyrrolidin-3-yl}-3-(4-fluorophenyl)urea], the pEC50 was 9.34.

Regarding `COc1ccc([C@H]2CN(OC)C(=O)[C@@H]2NC(=O)Nc2ccc(F)cc2)cc1` (single isomer, unassigned) [EXAMPLE 27-1, (+)-1-(4-Fluorophenyl)-3-[(3R*,4S*)-1-methoxy-4-(4-methoxyphenyl)-2-oxopyrrolidin-3-yl]urea], the pEC50 is 8.50.

As for `COc1cc(F)c([C@@H]2CN(OC)C(=O)[C@H]2NC(=O)Nc2ccc(F)cc2)c(F)c1` (single isomer, unassigned) [EXAMPLE 27-2, (−)-1-[(3S*,4R*)-4-(2,6-Difluoro-4-methoxyphenyl)-1-methoxy-2-oxopyrrolidin-3-yl]-3-(4-fluorophenyl)urea], the pEC50 is 10.00.

Consider `C#Cc1ccc(NC(=O)N[C@@H]2C(=O)NC[C@H]2c2c(F)cc(OC)cc2F)cc1` (single isomer, unassigned) [EXAMPLE 28-4, (−)-1-[(3S*,4R*)-4-(2,6-Difluoro-4-methoxyphenyl)-2-oxopyrrolidin-3-yl]-3-(4-ethynylphenyl) urea], for which the pEC50 was 8.79.

As for `CNc1cc(F)c([C@@H]2CNC(=O)[C@H]2NC(=O)Nc2ccc(F)cc2)c(F)c1` (single isomer, unassigned) [EXAMPLE 28-5, (−)-1-{(3S*,4R*)-4-[2,6-Difluoro-4-(methylamino)phenyl]-2-oxopyrrolidin-3-yl}-3-(4-fluorophenyl) urea], the negative logarithm of the EC50 (pEC50) was 8.85.

As to `NC(=O)c1cc(F)c([C@@H]2CNC(=O)[C@H]2NC(=O)Nc2ccc(F)cc2)c(F)c1` (single isomer, unassigned) [EXAMPLE 31-1, (−)-3,5-Difluoro-4-{(3R*,4S*)-4-[3-(4-fluorophenyl)ureido]-5-oxopyrrolidin-3-yl}benzamide], the pEC50 was 8.71.

Turning to `CO/N=C1\NC[C@@H](c2ccc(OC)cc2F)[C@@H]1NC(=O)Nc1ccc(F)cc1` (single isomer, unassigned) [EXAMPLE 32-2, (−)-1-[(3S*,4R*,Z)-4-(2-fluoro-4-methoxyphenyl)-2-(methoxyimino)pyrrolidin-3-yl]-3-(4-fluorophenyl)urea], the pEC50 is 10.52.

With `COc1ccc([C@@H]2CN/C(=N\OCCO)[C@H]2NC(=O)Nc2ccc(F)cc2)cc1` (single isomer, unassigned) [EXAMPLE 32-4, (−)-1-(4-fluorophenyl)-3-{(3S*,4R*,Z)-2-[(2-hydroxyethoxy)imino]-4-(4-methoxyphenyl)pyrrolidin-3-yl}urea], the pEC50 is 9.77.

Consider `CO/N=C1\NC[C@@H](c2c(F)cc(OC)cc2F)[C@@H]1NC(=O)Nc1ccc(C)cc1` (single isomer, unassigned) [EXAMPLE 32-8, (−)-1-[(3S*,4R*,Z)-4-(2,6-difluoro-4-methoxyphenyl)-2-(methoxyimino)pyrrolidin-3-yl]-3-(p-tolyl)urea], for which the pEC50 is 9.36.

Turning to `CO/N=C1\NC[C@@H](c2c(F)cc(OC)cc2F)[C@@H]1NC(=O)Nc1ccc(C#N)cc1` (single isomer, unassigned) [EXAMPLE 32-9, (−)-1-(4-cyanphenyl)-3-[(3S*,4R*,Z)-4-(2,6-difluoro-4-methoxyphenyl)-2-(methoxyimino)pyrrolidin-3-yl]urea], the pEC50 was 9.52.

As for `CO/N=C1\NC[C@@H](c2c(F)cc(OC)cc2F)[C@@H]1NC(=O)Nc1ccc(Cl)nc1` (single isomer, unassigned) [EXAMPLE 32-10, (−)-1-(6-chloropyridin-3-yl)-3-[(3S*,4R*,Z)-4-(2,6-difluoro-4-methoxyphenyl)-2-(methoxyimino)pyrrolidin-3-yl]urea], the pEC50 is 9.28.

As for `CO/N=C1\NC[C@@H](c2c(F)cc(OC)cc2F)[C@@H]1NC(=O)Nc1cc2ccccc2s1` (single isomer, unassigned) [EXAMPLE 32-11, (−)-1-(benzo[b]thiophen-2-yl)-3-[(3S*,4R*,Z)-4-(2,6-difluoro-4-methoxyphenyl)-2-(methoxyimino)pyrrolidin-3-yl]urea], the pEC50 was 9.06.

For `COc1cc(F)c([C@@H]2CN/C(=N\OCCO)[C@H]2NC(=O)Nc2ccc(C#N)cc2)c(F)c1` (single isomer, unassigned) [EXAMPLE 32-13, (−)-1-(4-cyanophenyl)-3-{(3S*,4R*,Z)-4-(2,6-difluoro-4-methoxyphenyl)-2-[(2-hydroxyethoxy)imino]pyrrolidin-3-yl}urea], the pEC50 is 9.60.

`COc1cc(F)c([C@@H]2CN/C(=N\OCCO)[C@H]2NC(=O)Nc2ccc(Cl)nc2)c(F)c1` (single isomer, unassigned) [EXAMPLE 32-14, (−)-1-(6-chloropyridin-3-yl)-3-{(3S*,4R*,Z)-4-(2,6-difluoro-4-methoxyphenyl)-2-[(2-hydroxyethoxy)imino]pyrrolidin-3-yl}urea]: the pEC50 is 9.09.

Take `COc1cc(F)c([C@@H]2CN/C(=N\OCCO)[C@H]2NC(=O)Nc2cc3ccccc3s2)c(F)c1` (single isomer, unassigned) [EXAMPLE 32-15, (−)-1-(benzo[b]thiophen-2-yl)-3-{(3S*,4R*,Z)-4-(2,6-difluoro-4-methoxyphenyl)-2-[(2-hydroxyethoxy)imino]pyrrolidin-3-yl}urea]: the pEC50 is 9.57.

As to `COc1cc(F)c([C@@H]2CN=C(Nc3ccn(C)n3)[C@H]2NC(=O)Nc2ccc(F)cc2)c(F)c1` (single isomer, unassigned) [EXAMPLE 32-16, (−)-1-{(3R*,4S*)-3-(2,6-difluoro-4-methoxyphenyl)-5-[(1-methyl-1H-pyrazol-3-yl)amino]-3,4-dihydro-2H-pyrrol-4-yl}-3-(4-fluorophenyl)urea], the pEC50 was 9.27.

With `COc1cc(F)c([C@@H]2CN/C(=N\N3CCOCC3)[C@H]2NC(=O)Nc2ccc(F)cc2)c(F)c1` (single isomer, unassigned) [EXAMPLE 32-17, (−)-1-[(3S*,4R*,Z)-4-(2,6-difluoro-4-methoxyphenyl)-2-(morpholinoimino)pyrrolidin-3-yl]-3-(4-fluorophenyl)urea], the pEC50 is 9.24.

With `O=C(Nc1ccc(F)cc1)N[C@@H]1/C(=N/OCCO)NC[C@H]1c1cc2c(cc1F)OCC2` (single isomer, unassigned) [EXAMPLE 32-19, (−)-1-((3S*,4R*,Z)-4-(6-fluoro-2,3-dihydrobenzofuran-5-yl)-2-[(2-hydroxyethoxy)imino]pyrrolidin-3-yl)-3-(4-fluorophenyl)urea], the pEC50 is 9.89.

For the origin of these results see patent US9822069B2, “Urea derivative or pharmacologically acceptable salt thereof” (KYORIN PHARMACEUTICAL CO. LTD., priority 2013, dated 2017).
